# In patent publication US20140073634A1 (Institute For Applied Cancer Science/The University of …, priority 2012, published 2014):
# pIC50: −log10 of the molar value. Structures can show the parent of a compound that is named as a salt.
# System: 293T-HRE-GFP-luc cells
# Assay: Cell-based reporter assay for IC50 determinations (HRE-luciferase, hypoxia)
# Conditions: 6 h, 6 hrs hypoxia (1% O2), luminescence
# Procedure: Cell-Based Reporter Assay for IC50 Determinations
# 293T-HRE-GFP-luc cells were routinely maintained in DMEM media (high glucose version with GlutaMAX and HEPES, Gibco, catalog #10564) supplemented with 10% fetal bovine serum and 2 μg/mL puromycin (Invitrogen, catalog #A11138-03) using a humidified incubator (normoxia conditions consisting of 37° C., 5% CO2 and ambient O2).
# In preparation for the reporter assay, cells were harvested and resuspended in DMEM media (high glucose version with GlutaMAX and HEPES) supplemented with 10% fetal bovine serum. Cells were inoculated into 384-well white Culturplates (Perkin Elmer catalog #6007680) at a density of 12,000 cells/well in a volume of […]. The microplates were incubated overnight (approximately 17-19 hours) at 37° C. with 5% CO2 and ambient O2. Stock solutions of the test compounds were prepared in DMSO (Sigma, Catalog #D2650) and serially diluted 1:3 using DMSO. Compounds were additionally diluted (1:50) with culturemedium and 10 µL were added per well to the Culturplate. Following a 30 min. incubation under normoxia conditions, the plates were incubated in hypoxia for 6 hrs. (37° C., 5% CO2 and 1% O2). Steadylite Plus (Perkin Elmer, catalog #6016751) was then added ([…]), the plates were mixed on an orbital shaker at room temperature in the dark for 15 min., and luminescence was measured using an Envision plate reader (Perkin Elmer). IC50 values were calculated using a four-parameter logistic curve fit. Results are shown below in Table 2; ND indicates no data.
row,Structure (SMILES),pIC50
1,O=c1ccc(-c2nc(-c3ccc(OC(F)(F)F)cc3)no2)nn1Cc1ccnc(N2CCNCC2)c1 [Example 1],> 7.00
2,CN1CCN(c2cc(Cn3nc(-c4nc(-c5ccc(OC(F)(F)F)cc5)no4)ccc3=O)ccn2)CC1 [Example 2],> 7.00
3,"CN1CCN(c2cc(Cn3nc(C(=O)Nc4ccc(OC(F)(F)F)cc4)ccc3=O)ccn2)CC1 [Example 3, 1-(2-(4-Methylpiperazin-1-yl)pyridin-4-yl)methyl)-6-oxo-N-(4-(trifluoromethoxy)phenyl)-1,6-dihydropyridazine-3-carboxamide bis trifluoroacetate salt]",6.00 to 7.00
4,"CN1CCN(c2cccc(Cn3nc(C(=O)Nc4ccc(OC(F)(F)F)cc4)ccc3=O)c2)CC1 [Example 4, 1-(3-(4-Methylpiperazin-1-yl)benzyl)-6-oxo-N-(4-(trifluoromethoxy)phenyl)-1,6-dihydropyridazine-3-carboxamide trifluoroacetate salt]",> 7.00
5,"Cc1ccc(-c2nc(-c3ccc(OC(F)(F)F)cc3)no2)c(=O)n1Cc1ccnc(N2CCN(C)CC2)c1 [Example 5, 1-methyl-4-(4-((6-methyl-2-oxo-3-(3-(4-(trifluoromethoxy)phenyl)-1,2,4-oxadiazol-5-yl)pyridin-1(2H)-yl)methyl)pyridin-1-ium-2-yl)piperazin-1-ium bis-trifluoroacetate]",> 7.00
6,"Cc1ccc(-c2nc(-c3ccc(OC(F)(F)F)cc3)no2)c(=O)n1Cc1cccc(N2CCN(C)CC2)c1 [Example 6, 1-Methyl-4-(3-((6-methyl-2-oxo-3-(3-(4-(trifluoromethoxy)phenyl)-1,2,4-oxadiazol-5-yl)pyridin-1(2H)-yl)methyl)phenyl)piperazin-1-ium trifluoroacetate]",> 7.00
7,"Cc1ccc(C(=O)Nc2ccc(OC(F)(F)F)cc2)c(=O)n1Cc1ccnc(N2CCN(C)CC2)c1 [Example 8, 1-methyl-4-(4-((6-methyl-2-oxo-3-((4-(trifluoromethoxy)phenyl)carbamoyl)pyridin-1(2H)-yl)methyl)pyridin-1-ium-2-yl)piperazin-1-ium bis-trifluoroacetate]",> 7.00
8,"CN1CCN(c2cc(Cn3cccc(C(=O)Nc4ccc(OC(F)(F)F)cc4)c3=O)ccn2)CC1 [Example 9, 1-methyl-4-(4-((2-oxo-3-((4-(trifluoromethoxy)phenyl)carbamoyl)pyridin-1(2H)-yl)methyl)pyridin-1-ium-2-yl)piperazin-1-ium bis-trifluoroacetate]",6.00 to 7.00

# Same assay, conditions: 6 hrs hypoxia (1% O2), luminescence
row,Structure (SMILES),pIC50
1,"O=c1ccc(-c2nc(-c3ccc(OC(F)(F)F)cc3)no2)cn1Cc1cccc(C(O)CO)c1 (single isomer, unassigned) [Example 53a, (1R)- or (1S)-1-(3-(1,2-dihydroxyethyl)benzyl)-5-(3-(4-(trifluoromethoxy)phenyl)-1,2,4-oxadiazol-5-yl)pyridin-2(1H)-one]",> 7.00
2,"O=c1ccc(-c2nc(-c3ccc(OC(F)(F)F)cc3)no2)cn1Cc1cccc(C(O)CO)c1 (single isomer, unassigned) [Example 53b, (1S)- or (1R)-1-(3-(1,2-dihydroxyethyl)benzyl)-5-(3-(4-(trifluoromethoxy)phenyl)-1,2,4-oxadiazol-5-yl)pyridin-2(1H)-one]",> 7.00
3,"O=c1ccc(-c2nc(-c3ccc(OC(F)(F)F)cc3)no2)cn1Cc1cccc(OCC(O)CO)c1 (single isomer, unassigned) [Example 55a, (2R)- or (2S)-1-(3-(2,3-dihydroxypropoxy)benzyl)-5-(3-(4-(trifluoromethoxy)phenyl)-1,2,4-oxadiazol-5-yl)pyridin-2(1H)-one]",> 7.00
4,"O=c1ccc(-c2nc(-c3ccc(OC(F)(F)F)cc3)no2)cn1Cc1cccc(OCC(O)CO)c1 (single isomer, unassigned) [Example 55b, (2S)- or (2R)-1-(3-(2,3-dihydroxypropoxy)benzyl)-5-(3-(4-(trifluoromethoxy)phenyl)-1,2,4-oxadiazol-5-yl)pyridin-2(1H)-one]",> 7.00
